The values below come from publication PMC10815964, “Cyclobutanone Inhibitors of Diaminopimelate Desuccinylase (DapE) as Potential New Antibiotics” (International Journal of Molecular Sciences, 2024).

Data set [1] has as its target HiDapE (Haemophilus influenzae, UniProt P44514). The experiment in a line: DapE inhibition, ninhydrin-based assay. The data set is classed as biochemical. As to conditions: for inhibition at 100 µM: 100 µM inhibitor, read-out: DapE % Inhib at 100 µM; for IC50: ninhydrin assay. Here is the method: All compounds were screened for DapE inhibitory potency using a ninhydrin-based assay at 100 μM, and IC50 values were determined for molecules that inhibited DapE > 70% at 100 μM (Table 1). Some SAR trends emerge from the data.
Experimental IC50 curves for cyclobutanone inhibitors against DapE were identified as sigmoidal shaped response curves, as opposed to simple hyperbolic plots. […] IC50 curves with the corresponding Hill coefficients are reported in the Supplementary Materials as Figures S74−S81. Experimental Hill coefficients may provide information on the number of binding sites of a biological target (receptors and enzymes) interacting with ligands.
The inhibition of HiDapE by potential inhibitors was assessed using the previously developed ninhydrin assay with slight modifications. It was performed in a PCR Thermal Cycler System. All experiments were performed in triplicate in 50 mM HEPES buffer at pH 7.5. Reaction volumes were 100 µL of 2 mM N^6-Methyl-L,L-SDAP and 8 nM HiDapE. Ninhydrin was purchased as a 2% solution in 100% DMSO/lithium acetate buffer at pH 5.2. The inhibitor, followed by HiDapE, was added to a 50 mM HEPES (pH 7.5) buffered solution at 30 °C, and the mixture was incubated at 30 °C for 10 min. N^6-Methyl-L,L-SDAP was added, and the reaction mixture was incubated at 30 °C for 10 min, then heated to 99 °C for 1 min, and further cooled to 0 °C for 1 min. The 2% ninhydrin solution (50 µL) was added, and the mixture was thoroughly mixed. The reaction mixture was heated to 80 °C for 15 min, then cooled to 0 °C for 1 min. The absorbance of an 80 μL aliquot was recorded at 570 nm on a BioTek Synergy 2 microplate reader. All the inhibition assays of HiDapE were performed in triplicate and the IC50 values were obtained by fitting the data following the modified Hill equation: V = V0 + (Vmax − V0) XnH/(XnH0.5 + XnH) using the graphing suite Origin 9.1 with the Levenberg–Marquardt non-linear least-squares algorithm. The velocity in the absence of the substrate is […]; the velocity at saturating concentrations of the substrate or with no inhibitor for the inhibition assay is Vmax; X is the concentration of the substrate or inhibitor; and X0.5 is the substrate (S0.5) and inhibitor (I0.5) concentration at 50% maximum velocity and at 50% inhibition, respectively. The Hill coefficient is represented as nH.

Chain of HiDapE (P44514 whole entry): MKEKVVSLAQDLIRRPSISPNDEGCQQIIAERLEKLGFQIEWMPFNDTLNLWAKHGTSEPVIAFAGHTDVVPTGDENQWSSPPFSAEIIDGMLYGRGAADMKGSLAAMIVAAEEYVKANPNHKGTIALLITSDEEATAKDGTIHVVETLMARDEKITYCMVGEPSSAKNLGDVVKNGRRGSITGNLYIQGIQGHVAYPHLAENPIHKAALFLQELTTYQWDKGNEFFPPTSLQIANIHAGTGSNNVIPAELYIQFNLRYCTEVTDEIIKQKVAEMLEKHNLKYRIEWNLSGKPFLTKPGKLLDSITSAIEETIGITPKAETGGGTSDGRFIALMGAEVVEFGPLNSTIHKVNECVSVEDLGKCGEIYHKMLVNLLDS

For orientation: melting point means the temperature of the solid-liquid transition. With `O=C(NC1CCC1=O)c1cccc2cccnc12` (centres unmarked) [3r, N-(2-Oxocyclobutyl)quinoline-8-carboxamide], the melting point lay in the range of 89 to 91 °C. The inhibition at 100 µM in data set [1] is less than 5%.

`Cc1ccc(C(=O)NC2CCC2=O)cc1` (centres unmarked) [3c, 4-Methyl-N-(2-oxocyclobutyl)benzamide]: the melting point was in the range of 149 to 150 °C. Also, in data set [1], the inhibition at 100 µM is 58.1%.

Take `CC(C)[C@@H](NS(=O)(=O)c1ccc(C#N)cc1)C(=O)NC1CCC1=O` (mixture of isomers) [3aa, (2R)-2-((4-Cyanophenyl)sulfonamido)-3-methyl-N-(2-oxocyclobutyl)butanamide]: the melting point fell in the range of 150 to 151 °C. In addition, in data set [1], the inhibition at 100 µM amounted to 5.6%.

Molecule `COc1cc(Cl)c(C(=O)NC2CCC2=O)cc1OC` (centres unmarked) [3h, 2-Chloro-4,5-dimethoxy-N-(2-oxocyclobutyl)benzamide] displayed a melting point of 123 to 125 °C. Besides, the inhibition at 100 µM in data set [1] amounted to 24.4%.

As for `COc1ccc(S(=O)(=O)N[C@H](C(=O)NC2CCC2=O)C(C)C)cc1` (mixture of isomers) [3z, (2S)-2-((4-Methoxyphenyl)sulfonamido)-3-methyl-N-(2-oxocyclobutyl)butanamide], the melting point lay within 179 to 181 °C. Also, the inhibition at 100 µM in data set [1] worked out at 30.7%.

`CC(C)[C@@H](NS(=O)(=O)c1ccc(O)cc1)C(=O)NC1CCC1=O` (mixture of isomers) [3ac, (2R)-2-((4-hydroxyphenyl)sulfonamido)-3-methyl-N-(2-oxocyclobutyl)butanamide] had a melting point of 139 to 141 °C. For the same molecule, the inhibition at 100 µM in data set [1] came out at 44.4%.

What is called IC50 is the point on the concentration scale where inhibition reaches its midpoint. Consider `O=C(N[C@H](Cc1ccccc1)C(=O)NC1CCC1=O)OCc1ccccc1` (mixture of isomers) [3ae, Benzyl ((2R)-1-oxo-1-((2-oxocyclobutyl)amino)-3-phenylpropan-2-yl)carbamate], for which, in data set [1], the inhibition at 100 µM is 97.9% and the 50% inhibitory concentration (IC50) worked out at 55.4 ± 5.5 µM.

As for `O=C(NC1CCC1=O)c1ccccc1Cl` (centres unmarked) [3d, 2-Chloro-N-(2-oxocyclobutyl)benzamide], the melting point was in the range of 102 to 103 °C. In addition, the inhibition at 100 µM in data set [1] amounted to 33.6%.

As for `O=C(N[C@@H](Cc1ccccc1)C(=O)NC1CCC1=O)OCc1ccccc1` (mixture of isomers) [3ad, Benzyl ((2S)-1-oxo-1-((2-oxocyclobutyl)amino)-3-phenylpropan-2-yl)carbamate], in data set [1], the inhibition at 100 µM came out at 96.2% and the IC50 was 69.8 ± 1.4 µM.

For the molecule `O=C(NC1CCC1=O)c1cccnc1` (centres unmarked) [3m, N-(2-Oxocyclobutyl)nicotinamide], the inhibition at 100 µM in data set [1] came out at 24.9%.

Consider `O=C(NC1CCC1=O)c1ccccc1O` (centres unmarked) [3i, 2-Hydroxy-N-(2-oxocyclobutyl)benzamide], for which the melting point was 149 to 151 °C. In data set [1], the inhibition at 100 µM was 28.9%.

`COc1cccc(CC(=O)NC2CCC2=O)c1` (centres unmarked) [3s, 2-(3-Methoxyphenyl)-N-(2-oxocyclobutyl)acetamide] returned a melting point of 104 to 105 °C. In data set [1], the inhibition at 100 µM stood at 27%.

In turn, `COc1ccc(C(=O)NC2CCC2=O)cc1Cl` (centres unmarked) [3g, 3-Chloro-4-methoxy-N-(2-oxocyclobutyl)benzamide] had a melting point of 134 to 136 °C. For the same molecule, the inhibition at 100 µM in data set [1] was found to be 29.1%.

With `O=C(NC1CCC1=O)c1ccc(Br)cc1` (centres unmarked) [3f, 4-Bromo-N-(2-oxocyclobutyl)benzamide], the melting point lay in the range of 104 to 105 °C. The inhibition at 100 µM in data set [1] came to 25.2%.

`O=C1CCC1NS(=O)(=O)c1ccc(C(F)(F)F)cc1` (centres unmarked) [3ah, N-(2-Oxocyclobutyl)-4-(trifluoromethyl)benzenesulfonamide]: the melting point fell in the range of 74 to 76 °C. Moreover, the inhibition at 100 µM in data set [1] was 22.6%.

Molecule `O=C(NC1CCC1=O)c1cnc2ccccc2c1` (centres unmarked) [3q, N-(2-Oxocyclobutyl)quinoline-3-carboxamide] yielded a melting point of 155 to 156 °C. For the same molecule, in data set [1], the inhibition at 100 µM came out at 48%.

Regarding `Cc1ccc(S(=O)(=O)N[C@H](Cc2ccccc2)C(=O)NC2CCC2=O)cc1` (mixture of isomers) [3w, (2R)-2-((4-Methylphenyl)sulfonamido)-N-(2-oxocyclobutyl)-3-phenylpropanamide], in data set [1], the inhibition at 100 µM was 55% and the IC50 is greater than 50 µM.

On to `Cc1ccc(S(=O)(=O)N[C@@H](Cc2c[nH]c3ccccc23)C(=O)NC2CCC2=O)cc1` (mixture of isomers) [3x, (2S)-3-(1H-Indol-3-yl)-2-((4-methylphenyl)sulfonamido)-N-(2-oxocyclobutyl)propanamide], for which the inhibition at 100 µM in data set [1] stood at 19.6%.

Molecule `Cc1ccccc1C(=O)NC1CCC1=O` (centres unmarked) [3a, 2-Methyl-N-(2-oxocyclobutyl)benzamide] yielded a melting point of 100 to 102 °C. The inhibition at 100 µM in data set [1] came out at 16.8%.

The molecule `O=C(NC1CCC1=O)c1ccccn1` (centres unmarked) [3l, N-(2-Oxocyclobutyl)picolinamide] had a melting point of 97 to 99 °C. Moreover, in data set [1], the inhibition at 100 µM was 25.6%.

In the case of `CC(C)[C@H](NC(=O)OCc1ccccc1)C(=O)NC1CCC1=O` (mixture of isomers) [3ag, Benzyl ((2S)-3-methyl-1-oxo-1-((2-oxocyclobutyl)amino)butan-2-yl)carbamate], in data set [1], the inhibition at 100 µM was determined as 53.9%.

`O=C(CCc1nc2ccccc2[nH]1)NC1CCC1=O` (centres unmarked) [3u] had a melting point of 179 to 181 °C. In addition, in data set [1], the inhibition at 100 µM is 84.7% and the half-maximal inhibitory concentration (IC50) amounted to 52.4 ± 7.4 µM.

`O=C(NC1CCC1=O)c1cccc(Cl)c1` (centres unmarked) [3e, 3-Chloro-N-(2-oxocyclobutyl)benzamide] came in with a melting point of 64 to 66 °C. In addition, the inhibition at 100 µM in data set [1] is 45.8%.

Consider `COc1cc(C(=O)NC2CCC2=O)cc(OC)c1OC` (centres unmarked) [3k, 3,4,5-Trimethoxy-N-(2-oxocyclobutyl)benzamide], for which the melting point was 144 to 146 °C. In data set [1], the inhibition at 100 µM is 93.7% and the half-inhibitory concentration (IC50) is 39.6 ± 2.9 µM.

As for `Cc1cccc(C(=O)NC2CCC2=O)c1` (centres unmarked) [3b, 3-Methyl-N-(2-oxocyclobutyl)benzamide], the melting point was 94 to 96 °C. Further, the inhibition at 100 µM in data set [1] is 37.8%.

For `Cc1ccc(S(=O)(=O)N[C@@H](Cc2ccccc2)C(=O)NCC(C)(C)O)cc1` [4b, (S)-N-(2-hydroxy-2-methylpropyl)-2-((4-methylphenyl)sulfonamido)-3-phenylpropanamide], the inhibition at 100 µM in data set [1] is 19.1%.

For `O=C(N[C@@H](Cc1ccc(O)cc1)C(=O)NC1CCC1=O)OCc1ccccc1` (mixture of isomers) [3af, Benzyl ((2S)-3-(4-hydroxyphenyl)-1-oxo-1-((2-oxocyclobutyl)amino)propan-2-yl)carbamate], in data set [1], the inhibition at 100 µM was 15.5%.

As for `Cc1ccc(S(=O)(=O)N[C@@H](Cc2ccccc2)C(=O)NCC2(O)CC2)cc1` [4a, (S)-N-((1-hydroxycyclopropyl)methyl)-2-((4-methylphenyl)sulfonamido)-3-phenylpropanamide], the inhibition at 100 µM in data set [1] turned out to be 36.4%.

On to `O=C1CCC1NS(=O)(=O)c1ccc(F)cc1` (centres unmarked) [3ai, N-(2-Oxocyclobutyl)-4-(fluoro)benzenesulfonamide], for which, in data set [1], the inhibition at 100 µM amounted to 72.9% and the half-maximal inhibitory concentration (IC50) came to 53.3 ± 5.4 µM.

`Cc1ccc(S(=O)(=O)N[C@@H](Cc2ccccc2)C(=O)NC2CCC2=O)cc1` (mixture of isomers) [3v, (2S)-2-((4-Methylphenyl)sulfonamido)-N-(2-oxocyclobutyl)-3-phenylpropanamide]: in data set [1], the inhibition at 100 µM worked out at 92.8% and the IC50 was 45.7 ± 1.5 µM.
